# What was measured:
# [1] = molecular target: T1, PP1α (PP1CA) (Oryctolagus cuniculus, UniProt P62139); test: Protein phosphatase test (PP1 activity, DiFMUP fluorescent substrate); type: biochemical; conditions: PP1CA at 80 mU, fluorescent substrate (50 μM), molecules from 50 μM to 50 nM; read-out: PP1 Inhibition IC50
# T1 construct: purchased New England Biolabs P0754
# How it was run: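 PP1α (30 or 80 mU) in 100 mM Tris-HCl pH 7.5, 4 mM DTT, 0.2 mM EDTA, 0.5 mM MnCl2 was preincubated 15 min with compound (50 μM to 50 nM), then given 60 μM DiFMUP for 20 min at 37 °C. Phosphatase activity was read as fluorescence at 355-460 nm, three times in duplicate.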
# [2] = test system: HeLa cells; test: Phase contrast video microscopy of HeLa cells (mitosis duration, blebbing); type: cell-based, human; conditions: 0.5 μM
# Procedure: The cells were filmed over 48 hours (image acquisition every 5 minutes) with a Neofluar 40× objective (Zeiss).
# The values of FIG. 10A are averages±SEM of two experiments in which 50 mitotic cells were monitored.
# For z-series video microscopy, HeLa cells were cultured in glass-bottomed dishes (Iwaki, Milian # BY-3910035). The system comprises: an AXIOVERT 200M inverted microscope (Zeiss®), a thermostated incubation chamber which maintains a temperature of 37° C. and a constant CO2 level of 5%, a motorized platform and a CoolSNAP HQ camera (Roper Scientifics®) coupled with the Metamorph acquisition and analysis system (Universal Imaging™ Corporation). The studies were carried out with ×20 or ×40 objectives (Neofluar Zeiss).
# Initially, the acquisition fields were chosen and stored in the memory, then the acquisition parameters were defined, such as the duration of the experiment (48 hours), the interval between the image captures (5 minutes), or the number of sections at depth z (9 sections). At the end of 48 hours of recording, the acquisition batteries were reconstituted with the image at z having the same focus, using the Metamorph software.
# [3] = test system: primary human fibroblasts; test: Indirect immunofluorescence on primary human fibroblasts; type: cell-based; conditions: 5 and 10 μM for 24 hours
# Procedure: Primary human fibroblasts (PHFs) were prepared from newborn foreskins as described in (Nahm W K et al., J Dermatol Sci. 2002, 28(2): pp 152-8).
# The cells were cultured on slides in 24-well plates and incubated for 24 hours with molecule 6 at different concentrations from 1 to 10 μM.
# Corresponding quantities of DMSO were added to the culture medium in the control wells.
# The cells were fixed in a solution of PBS with 4% paraformaldehyde (PFA) and 0.1% glutaraldehyde (GA), for 15 minutes and centrifuged at 300 g for the last 10 minutes of the fixing. The slides were rinsed in PBS and the free aldehyde groups were reduced by two successive 5-minute incubations in PBS containing 1 mg/ml of NaBH4.
# After one washing with PBS then another with PBST (PBS with 0.5% triton-X-100), the cells are incubated for 30 minutes at ambient temperature with anti α-tubulin monoclonal antibody solution (DM1A clone, Sigma # T6199) diluted to 1:200 in PBST. […] After 3 10-minute washings in PBST, the slides are mounted on plates in Fluorsave™ mounting medium (Calbiochem #345789) and are observed and analyzed using an Axiovert 200M inverted fluorescence microscope (Zeiss®). […]
# [4] = test system: human tumours (HTB-177: pulmonary carcinoma) xenografted onto nude mice; test: HTB-177 tumour xenograft in nude mice, necrosis and histology; type: in vivo
# Procedure: All the animal experiments were carried out according to the recommendations of the local ethics commmittee. Nude mice (NCr-nu/nu females (Harlan Laboratories), were housed in a room with filtered air at 22° C., alternating 12 hours of day and 12 hours of night.
# HTB177 cells (1×10^6) were implanted sub-cutaneously in the flanks of the mice. The tumour growth was monitored twice weekly by measuring the size of the tumours with a slide caliper, thus making it possible to estimate the volume of the tumour, calculated in mm^3 according to the following formula: length×width×height×π/6.
# Treatment commenced when the tumours reached a size of approximately 250 mm^3. The weight of the animal, the volume of the tumour and the extension of the necroses were measured twice weekly.
# The animals were sacrificed when the tumour reached 2000 mm^3 or sooner if a clinical sign of suffering, defined by the ethics committee, was observed.
# The mice received compound 6 per os in doses and at intervals described in the captions to the figures. The control mice received the vehicle alone (identical volume of beta-cyclodextrin at 60 mg/ml))
# After euthanasia of the animals, the tumours were removed, cut sagittally along the median line, frozen rapidly in nitrogen liquid and stored at −80° C. […]
# T1 sequence (P62139 whole entry): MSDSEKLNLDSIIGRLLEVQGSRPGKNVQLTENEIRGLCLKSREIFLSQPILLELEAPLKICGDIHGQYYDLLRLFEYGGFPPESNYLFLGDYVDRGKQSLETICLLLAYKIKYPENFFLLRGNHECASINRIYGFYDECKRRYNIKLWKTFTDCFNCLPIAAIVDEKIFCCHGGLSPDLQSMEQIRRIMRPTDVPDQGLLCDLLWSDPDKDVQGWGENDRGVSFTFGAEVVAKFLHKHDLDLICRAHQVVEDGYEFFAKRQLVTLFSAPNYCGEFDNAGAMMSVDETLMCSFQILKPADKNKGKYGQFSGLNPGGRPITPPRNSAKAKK
smiles,measurement,setting,value
"COc1ccc(-c2[nH]c(=O)c3cc(OC)ccc3c2[N+](=O)[O-])cc1 [Compound 6, 7-methoxy-3-(4-methoxyphenyl)-4-nitroisoquinoline-1(2H)-one]",IC50,[1],≤ 9 µM
same,"membrane phenotype of HeLa cells (interphase and mitosis), phase contrast",[2]; 3 hours,cortical blebbings
same,"mitotic arrest of HeLa cells, phase contrast over 24 hours",[2]; 24 hours,accumulation of rounded HeLa cells
same,mitotic cells remaining rounded,[2]; HeLa cells in mitosis,20%
same,mitotic cells showing intense blebbing,[2]; HeLa cells in mitosis,80%
same,duration of the mitosis of HeLa cells,[2]; 1 hour under control conditions,22 h
same,"phenotype on microtubules and actin cytoskeleton, primary human fibroblasts in interphase",[3],depolymerization of the microtubules and a reorganization of the actin cytoskeleton
same,"phenotype on microtubules and actin cytoskeleton, primary human fibroblasts in mitosis",[3],depolymerization of the spindle microtubules and the formation of ectopic furrows
same,tumour necrosis (macroscopic),"[4]; 40 mg/kg twice weekly per os, after one cycle of administration (day 7)",central necrosis
same,necrosis on H&E-stained tumour sections,[4]; 48 hours after administration of 40 mg/kg,extensive areas of necrosis

# Source: patent publication US8883763B2 (Universite Joseph Fourier, priority 2010, dated 2014)
